Experimental data as given in patent US6500821B1, “4-amino-1-aryl-1,5-dihydropyrrol-2-ones and process for making” (Arzneimittelwerk Dresden GmbH, priority 1999, dated 2002).

Tests used:
[1] = system: pentetrazol convulsion model; assay: Pentetrazol convulsion model, rat p.o.; type: in vivo; conditions: po
Experimental: (§1) Compounds according to the present invention were tested in vivo for their anticonvulsive action as shown in Table 1 in mice by i.p. administration, or in rats administered orally according to the internationally customary standard (Pharmac. Weekblad, Sc.Ed. 14 132 (1992) and Antiepileptic Drugs, Third Ed., Raven Press, New York 1989).
(§2) Analogous results were obtained for oral action.

neurotoxicity = assay: Neurotoxicity, rat; type: in vivo
Experimental: as §1, §2

maximal electroshock [2] = assay: Maximal electroshock, rat p.o.; type: in vivo; conditions: po
Experimental: as §1, §2

maximal electroshock [3] = assay: Anticonvulsive action, maximal electroshock (MES), mouse i.p.; type: in vivo; conditions: ip, dose 300 mg/kg, read-out: Action, % of the protected animals
Experimental: as §1, with “1989). [table]” for “1989).”

s.c. pentetrazole = assay: Anticonvulsive action, s.c. pentetrazole (PTZ), mouse i.p.; type: in vivo; conditions: ip, read-out: Action, % of the protected animals
Experimental: as §1, with “1989). [table]” for “1989).”

[4] = Octanol/water partition coefficient; type: physicochemical; conditions: read-out: log P (octanol/water partition coefficient)
elevated maze test = assay: Elevated maze test; type: in vivo, mouse; conditions: for Activity in % (length of stay in the open arms, control = 100): mouse, intraperitoneal
Text: In this model, mice are placed in an elevated passage system with open and closed arms as described by Pellow, S., Chopin, P., File S. E., Briley, M.: Validation of open: closed arm entries in an elevated plus-maze as a measure of anxiety in rats. J. of Neuroscience Methods 14: 149-167, 1985; Hogg, S.: A review of the validity and variability of the elevated plus-maze as an animal model of anxiety. Pharmacology Biochemistry and Behavior: 21-30, 1996. Untreated animals repeatedly try the closed passages. The inhibition of anxiety is measured by the length of stay in the open arms as a percentage of the total length of stay.

Vogel Conflict Test = assay: Vogel Conflict Test; type: in vivo, rat
Text: In this model, continuous access to drinking water is withheld from rats for a certain time. After this period, free access is given to drinking water, but is coupled with a mild electrical stimulation. The conflict for the animals is between accepting the electrical stimulation or going without a drink.
The reactions to a conflict situation of this type are similar to the secondary phenomena of anxiety in man. The resulting avoidance reactions can be suppressed by anxiolytic substances. As a measure of the anxiolytic action, the number of tolerated current pulses of the animals treated with the test substance is assessed in comparison to the vehicle-treated control group.

SMILES: O=C1C=C(N2CCOCC2)CN1c1ccc(Cl)cc1 [1-(4-chlorophenyl)-4-morpholin-4-yl-1,5-dihydropyrrol-2-one]
- ED50 [1]: 11 mg/kg
- NT50 neurotoxicity (neurotoxicity): > 500 mg/kg
- ED50 (maximal electroshock [2]): 19 mg/kg

SMILES: O=C1C=C(N2CCOCC2)CN1c1ccc(Cl)cc1 [Compound 4, 1-(4-chlorophenyl)-4-morpholin-4-yl-1,5-dihydropyrrol-2-one]
- responders at 300 mg/kg (maximal electroshock [3]): 0%
- responders at 30 mg/kg (s.c. pentetrazole; dose 30 mg/kg): 100%
- logP [4]: 1.91
- therapeutic index (elevated maze test; elevated maze test): > 50
- proportionate length of stay in the open arms (in words) (elevated maze test; intraperitoneal administration): significantly increased
- Activity in % (length of stay in the open arms, control = 100) (elevated maze test; 1 mg/kg): 128 (p < 0.05) %
- Activity in % (length of stay in the open arms, control = 100) (elevated maze test; 3 mg/kg): 110%
- Activity in % (length of stay in the open arms, control = 100) (elevated maze test; 10 mg/kg): 158 (p < 0.05) %
- Activity in % (length of stay in the open arms, control = 100) (elevated maze test; 30 mg/kg): 129%
- therapeutic index (Vogel Conflict Test; Vogel Conflict Test): > 50
- Changed number of impulses to the control in % (Vogel Conflict Test; rat, 3 mg/kg p.o.): 102%
- Changed number of impulses to the control in % (Vogel Conflict Test; rat, 10 mg/kg p.o.): 174%
- dose from which an anxiolytic action was detected / equally effective dose (Vogel Conflict Test; rat, p.o.): 10 mg/kg

SMILES: O=C1C=C(N2CCCC2)CN1c1ccc(Cl)cc1 [Compound 17, 1-(4-chlorophenyl)-4-pyrrolidin-1-yl-1,5-dihydropyrrol-2-one]
- melting point: 223 to 227 °C
- responders at 300 mg/kg (maximal electroshock [3]): 66%
- responders at 300 mg/kg (s.c. pentetrazole; dose 300 mg/kg): 0%
- logP [4]: 2.6

SMILES: CC1CCCN(C2=CC(=O)N(c3ccc(Cl)cc3)C2)C1 (stereo not drawn) [Compound 19, 1-(4-chlorophenyl)-4-(3-methylpiperidin-1-yl)-1,5-dihydropyrrol-2-one]
- melting point: 188 to 189 °C
- responders at 300 mg/kg (maximal electroshock [3]): 0%
- responders at 100 mg/kg (s.c. pentetrazole; dose 100 mg/kg): 40%
- logP [4]: 3.58
